What was measured:
[1] = system: MED14 phosphorylation in SW620 cells; assay: CDK-substrate motif immunoprecipitation and MED14 immunoblot, SW620; assay type: cell-based, human; conditions: parent SW620, 350 nM, 6 h
Excerpt: 3 Mediator kinase knockout alters STAT1^SER727phosphorylation and promoter activity in SW620 human colon cancer cells. (A) Capillary immunoassay of Mediator kinase module expression and pSTAT1^SER727 biomarker in multiple independent knockout clones. GAPDH was included as a loading control. […] Controls included IgG alone for background, DMEM for untreated cells, and DMSO as a vehicle control. MED14 was detected as a doublet pair of bands by immunoblotting of cell lysates (middle gel panel). […] The lower panel includes vinculin as a loading control. (C) Promoter reporter results from CDK8 knockout clone 1 relative to parent SW620 cells. Data represent mean ± s.e.m (n = 3). The black horizontal line indicates unchanged reporter activity, while the horizontal red line highlights reporters with altered activity ±1.5-fold. […]
Cell monolayers were washed with PBS twice and lysed using a modified RIPA buffer, mRIPA (50 mM TRIS-HCl pH 7.4, 1% NP-40 substitute, 0.5% NaDOC, 150 mM NaCl, 1 mM EDTA, 0.02% SDS and 1:100 dilution of proteinase and phosphatase inhibitor cocktail, (#5872, Cell Signaling Technology) with overnight freezing at -80 °C and sonication of the cell pellet. Lysates were clarified by centrifugation and supernatants collected and protein concentration determined by a bicinchoninic acid (BCA) assay. […]

SW620 cells = assay: Tumour spheroid growth assay (CellTitre-Glo), SW620 parent and knockout clones; assay type: cell-based, human; conditions: SW620 spheroids
[2] = system: SW620 human solid tumor xenografts; assay: Antitumor activity in SW620 tumor xenografts (parent and knockout clones); conditions: 42 mg/kg p.o. qd 5/7 days, 14-20 days
Procedure: Three separate clones were run for each knockdown condition (n = 7 control or treated mice per group for the parent and each individual clone). Tumors and plasma were collected 6 h after the final dose. For all graphs an ordinary one-way ANOVA with Dunnett’s correction was run to determine significance. […] Each point represents data from a knockout clone.
The establishment, treatment, pharmacokinetic analyses and processing of tumor samples from solid tumor xenografts was performed as described previously previously. , All procedures were performed in accordance with published NCRI guidelines and UK Government Home Office regulations.
The establishment, treatment, pharmacokinetic analysis and processing of tissue
samples from human tumour xenografts was performed as described previously.3,4 All
procedures were performed in accordance with published guidelines and UK
Government Home Office regulations.5 Female athymic nude mice Crl:NU-Foxn1nu
(Charles River Laboratories, US) were acclimatized for 1 week prior to use. Five million
SW620 human colorectal carcinoma cells were injected s.c. in the right flanks of 6–8
weeks old female NCr athymic mice under isofluorothane anesthesia. Therapy was
initiated when established tumours reached a mean volume of 60 mm (day 7). Animals
were randomly assigned into cohorts. Control mice received vehicle (0.5% Methocel,
at 42 mg/kg p.o qd for 5/7 days with a 2-day break after 1 week's dosing.
was prepared 24 h prior to administration to mice by weighing into a glass 30 mL
universal tube, and Methocel solution (0.5% Methocel, 0.25% Tween 20 in sterile
phosphate buffered saline) added to provide a final concentration of 3 mg/mL.
preparation was agitated at room temperature by magnetic stirrer to bring it into a fine
suspension before use. Animals were dosed orally by gavage every 24 h at 0.1 mL
per 10 g body weight. Tumours were measured three times weekly by Vernier calipers and body weights recorded. At the end of the study, day 3 for pharmacodynamic
biomarker analysis and day 14 for anti-tumour therapy experiments, animals were
culled 6 h after the final dose. Heparinized blood was collected by cardiac puncture,
spun, and the plasma snap frozen in liquid nitrogen for analysis of compound
exposure. Tumours were excised, weighed and samples snap frozen for compound

Structure (SMILES)	MED14 upper band (immunoblot of cell lysates) [1]	spheroid growth of CDK8 and double knockout clones (SW620 cells)	spheroid growth of CDK19 knockout clones (SW620 cells)	antitumor activity, treated/control (T/C) ([2]; CDK8/19 double knockout SW620 xenografts, p < 0.005) [%]	antitumor activity, treated/control (T/C) ([2]; CDK8 knockout SW620 xenografts, ± s.e.m.) [%]	antitumor activity, treated/control (T/C) ([2]; CDK19 knockout SW620 xenografts) [%]	antitumor activity, treated/control (T/C) ([2]; parental SW620 xenografts) [%]
Cn1cc(-c2ccc(-c3cncc(Cl)c3N3CCC4(CCNC4=O)CC3)cc2)cn1 [CCT251545]	reduced by active compound treatment	insensitive to treatment	growth inhibition similar to the parental line				
Cn1ncc2cc(-c3cnc(N)c(Cl)c3N3CCC4(CCNC4=O)CC3)ccc21 [CCT251921]				113 ± 10	59 ± 6	66 ± 3	63

From PMC12281475, “Mediator Kinase Inhibitor Selectivity and Activity in Colorectal Cancer” (ACS Chemical Biology, 2025)
